According to ChEMBL document CHEMBL1157539, “Thousands of chemical starting points for antimalarial lead identification” (Nature, 2010):

The compounds below were run on Plasmodium falciparum (assay: GSK_TCMDC: Inhibition of Plasmodium falciparum 3D7 in whole erythrocytes, using parasite LDH activity as an index of growth.). Details: Plasmodium falciparum, 3D7.
Type: functional, organism-based

In order of falling XC50:
1. Cc1ccc(-n2nc(-c3ccccc3)c3cc(C(=O)NCCN)sc32)cc1  1370 nM
2. Cc1nc(C(C)Nc2nncc(-c3ccc(Cl)cc3)n2)cs1 (stereo not drawn)  1330 nM
3. Cc1ccc(NC(=O)c2cccc(N3CCN(c4ccncc4)CC3)c2)cc1F  1300 nM
4. O=C(Nc1cccc(CN2CCCN(Cc3ccccc3)CC2)c1)c1cc2ccccc2s1  1200 nM
5. CN(C)c1ccc(-c2ccc(C(=O)NC3CCN(Cc4ccc5c(c4)OCCO5)CC3)s2)cc1  1120 nM
6. Cc1ccc(NC(=O)N2CCN(CCCCCNC(=O)/C=C/c3ccc(Cl)c(Cl)c3)CC2)cc1C  1100 nM
7. CCNc1cc(C)nc(Nc2ccc(NC(=O)c3ccc(OC)c(OC)c3)cc2)n1  1070 nM
8. COc1ccc(OCCCN2CCCCC2)cc1S(=O)(=O)c1ccc(OCc2ccc(C(F)(F)F)cc2)cc1  1010 nM
9. CN1CCN(CCCN(Cc2cccc(-c3ccc(CNCc4ccc5c(c4)OCO5)cc3)c2)C(=O)CCC2CCCC2)CC1  1000 nM
10. COc1cc(C2C(Oc3ccccc3)C(=O)N2Cc2ccc(F)cc2)cc(OC)c1OC (stereo not drawn)  956 nM
11. Fc1ccccc1C=NN=c1cc[nH]c2ccccc12  894 nM
12. CCOC(=O)c1ccc(NC(=O)NCCCC2CCCN(CCCCCNC(=O)/C=C/c3ccc(Cl)c(Cl)c3)C2)cc1 (stereo not drawn)  855 nM
13. CC(=O)N(Cc1cccc(-c2cccc(CNCc3ccc4c(c3)OCO4)c2)c1)C1CCN(Cc2ccccc2)CC1  839 nM
14. c1ccc(CNc2nc(NCCc3c[nH]cn3)nc(N3CCCC4CCCCC43)n2)cc1 (stereo not drawn)  834 nM
15. CN(C)Cc1ccc(-c2cc3c(Nc4ccc(OCc5cccc(F)c5)c(Cl)c4)ncnc3s2)[nH]1  824 nM
16. CCNc1cc(C)nc(Nc2ccc(NS(=O)(=O)c3ccccc3)cc2)n1  791 nM
17. Cn1nc(-c2ccccc2F)c2cc(C(=O)NC3CCN(Cc4ccccc4)CC3)sc21  789 nM
18. Oc1ccc2[nH]c(-c3cccs3)nc2c1CN1CCC(O)(c2ccccc2)CC1  782 nM
19. CC(C)c1ccc(NC(=O)c2cccc(CN3CCCN(Cc4cccc(O)c4)CC3)c2)cc1  772 nM
20. O=C(Cn1c(SCc2cccc(F)c2F)cc(=O)c2ccccc21)N(CCn1ccnc1)Cc1ccc(-c2ccc(C(F)(F)F)cc2)cc1  770 nM
21. OC(CNc1ccnc(Nc2cccc(Cl)c2)n1)c1ccc(C(F)(F)F)cc1 (stereo not drawn)  768 nM
22. CCN(CC)CCN(Cc1ccc(-c2ccc(C(F)(F)F)cc2)cc1)C(=O)Cn1c(SCc2ccc(F)cc2)cc(=O)c2ccccc21  752 nM
23. COC(=O)c1sc(-c2ccc(Cl)cc2)cc1N(CCCN1CCC(N2CCCCC2)CC1)S(=O)(=O)c1ccc(C)cc1  744 nM
24. COCCNCc1cccc(-c2ccc3c(Nc4ccc(F)cc4Cl)ccnc3c2)c1  680 nM
25. O=C(Cc1cccc(Cl)c1)Nc1cccc(-c2c[nH]c3nc(Nc4ccccc4)ncc23)c1  678 nM
26. CC(C)OC(=O)c1ccccc1S(N)(=O)=O  674 nM
27. CNC(=O)Cc1ccc(C(=O)Nc2cccc(-c3cccc(-c4nc5cccc(C)c5[nH]4)c3)c2)cc1  530 nM
28. O=C1CCCN1CCCNCc1cccc(-c2ccc(-c3nc4cc(C(F)(F)F)ccc4[nH]3)s2)c1  448 nM
29. CCc1ccnc2c(N3CCCC3=O)cc(C(=O)N[C@@H](Cc3ccccc3)[C@H](O)CNC3CCOCC3)cc12  381 nM
30. CN1CCCC1CCNc1ncc2c(-c3ccc(NC(=O)Nc4cc(C(F)(F)F)ccc4F)cc3)nn(C)c2n1 (stereo not drawn)  344 nM
31. c1ccc(Oc2ccc(Nc3ccnc4cc(-c5ccc(CN6CCCCC6)o5)ccc34)cc2)nc1  331 nM
32. COc1ccc(N2C(N)=NC(N)=NC2(C)C)cc1OC  311 nM
33. CCCC(=O)c1c(O)c2ccccc2oc1=O  265 nM
34. Cc1cc2cc(CNCCc3ccccc3Br)ccc2nc1N  243 nM
35. O=C(c1cccc(-c2noc(C(F)(F)F)n2)c1)N1CCN(c2ccncc2)CC1  233 nM
36. O=C(Cc1c[nH]cn1)Nc1cccc(-c2cccc(-c3nc4cc(C(F)(F)F)ccc4[nH]3)c2)c1  225 nM
37. CCOc1ccc(-c2nc3cc(-c4nc5cc(N6CCN(C)CC6)ccc5[nH]4)ccc3[nH]2)cc1  108 nM
38. FC(F)(F)c1ccc2[nH]c(-c3cccc(-c4ccc(CNCCc5ccncc5)cc4)c3)nc2c1  98.9 nM
